This passage reports logP results from the SangsterLogP compilation.

As a reminder, the logP is the decadic logarithm of the partition coefficient of the neutral form, usually between octanol and water. The low end stands for a more hydrophilic compound, the high end for a more lipophilic compound.

The structures appear in SMILES notation.

The data set in a line: method code SF-AS, from DOI: 10.2175/106143002x139965, PMID: 12150246.
Compound `O=[N+]([O-])c1cc(Cl)ccc1O` had a logP of 2.48.

On to `O=[N+]([O-])c1ccc(Cl)c([N+](=O)[O-])c1`, for which the logP amounted to 2.18.

Consider `Nc1c(Cl)cc([N+](=O)[O-])cc1Cl`, for which the logP was 2.84.

`Nc1ccc(Cl)cc1[N+](=O)[O-]` displayed a logP of 2.56.

Compound `Nc1ccc(F)cc1Cl` displayed a logP of 2.04.

For `Fc1c(Cl)cccc1Cl`, the logP was found to be 3.38.

Turning to `Fc1ccc(Cl)cc1Cl`, the logP turned out to be 3.38.

Take `N#Cc1ccc(Cl)cc1`: the logP is 2.24.

Consider `Clc1cccc(I)c1Cl`, for which the logP is 4.93.

In turn, `Clc1cccc(Br)c1Cl` yielded a logP of 4.61.

Compound `Nc1cc([N+](=O)[O-])ccc1Cl` registered a logP of 2.2.

As for `Clc1cccc(Cl)c1Br`, the logP was determined as 4.17.

Turning to `Nc1ccc(Cl)c(Cl)c1`, the logP was 2.55.

`Nc1ccc([N+](=O)[O-])cc1Cl` displayed a logP of 2.14.

On to `Clc1ccc(I)cc1`, for which the log partition coefficient (logP) amounted to 4.12.
